Measured values as given in patent US9636317B2, “Compositions and methods of use of phorbol esters” (priority 2007, dated 2017).
“And” between values parts separate entries of the source, which are not always exact repeats. Equal entries are not always repeated.

Experiments:
CD3, CD4, CD8 = assay: Second clinical study of HIV+ patients: CD3, CD4, CD8; assay type: in vivo, human; design: CD4 / CD8 / CD3: unit not given here; details: for CD4 / CD3 / CD8: one value per patient
Procedure: Nine of the patients in Example III were given a second treatment of TPA. Of these nine, seven were asymptomatic at the beginning of the second trial. A tenth patient (patient #2a) who was symptomatic and had not previously been treated with TPA was added to the study. Each patient was administered a weight adjusted dosage of TPA (75 μg/sq m) in 200 ml of sterile saline intravenously over one hour. This dosage was given to each patient once a day for ten consecutive days followed by a rest period of ten days for three cycles and a total of 30 doses of TPA. Patients 5a, 6a, and 8a stopped taking anti-AIDS drugs one month prior to beginning the TPA treatment and beginning again one month after the third cycle. Patients 1-4-a, 7a, and 9a-10a continued taking anti-AIDS drugs throughout the treatment.
Blood samples were taken three days prior to starting treatment, after completing the first 10 day cycle of TPA infusion and again after the last TPA infusion and CD3, CD4, CD8, WBC, RBC, HGB and platelets were measured.

[1] = tested on: circulating white blood cells and neutrophils; details: patients whose bone marrow function has been depressed by chemotherapy; cited from earlier work
[2] = After first 10-day TPA infusion cycle
[3] = After third 10-day TPA infusion cycle

CCCCCCCCCCCCCC(=O)O[C@@H]1[C@@H](C)[C@@]2(O)[C@@H](C=C(CO)C[C@]3(O)C(=O)C(C)=C[C@@H]23)[C@@H]2C(C)(C)[C@]12OC(C)=O [TPA, 12-O-tetradecanoylphorbol-13-acetate]
CD4 (CD3, CD4, CD8; After first 10-day TPA infusion cycle, 75 μg/sq m i.v. daily): 76 and 460 and 189 and 91 and 285 and 729 and 519 and 136 and 74 and 7 | CD3 (CD3, CD4, CD8; [2]): 476 and 1200 and 823 and 1598 and 758 and 3148 and 1143 and 712 and 333 and 1323 | CD8 (CD3, CD4, CD8; [2]): 335 and 729 and 584 and 1507 and 429 and >2000 and 547 and 574 and 261 and 907 | CD3 (CD3, CD4, CD8; [3]): 625 and 2033 and 1193 and 1257 and 938 and 3347 and 1295 and 1317 and 308 and 2037 | CD4 (CD3, CD4, CD8; [3]): 137 and 1002 and 205 and 94 and 276 and 786 and 495 and 100 and 63 and 19 | CD8 (CD3, CD4, CD8; [3]): 543 and 980 and 916 and 1127 and 466 and >2000 and 733 and 1221 and 208 and 1129 | CD3 (summary of Table 3) (CD3, CD4, CD8; after the first and third infusion with TPA): increase in CD3 in all patients | circulating white blood cells and neutrophils [1]: increase in circulating white blood cells and neutrophils
